Source: PubChem BioAssay AID248 (DTP/NCI, 2004)
“And” between values parts separate entries of the source, which are not always exact repeats. Equal values may be shown once. Inconclusive results and toxic doses are left out. Cut-off read from the data, not from the text of the source: active = T/C of 150% or more; inactive = T/C below 125%.

System: L1210 leukemia ip in BDF1 mice, survival T/C
Test: NCI In Vivo Anticancer Drug Screen. Data for tumor model L1210 Leukemia (intraperitoneal) in B6D2F1 (BDF1) mice
Conditions: endpoint: mean survival time, higher = longer survival
How it was run: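 Tumor cells were implanted, animals were treated, and survival was followed. The result divides the treated measurement by the vehicle-control measurement.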

[1] = dose: 100.0 mg/kg/injection, schedule: Q01DX001 (ip), vehicle: saline
[2] = dose: 100.0 mg/kg/injection, schedule: Q04DX003 (ip), vehicle: saline
[3] = dose: 200.0 mg/kg/injection, schedule: Q01DX001 (ip), vehicle: saline
[4] = dose: 200.0 mg/kg/injection, schedule: Q04DX003 (ip), vehicle: saline
[5] = dose: 400.0 mg/kg/injection, schedule: Q01DX001 (ip), vehicle: saline
[6] = dose: 400.0 mg/kg/injection, schedule: Q04DX003 (ip), vehicle: saline
[7] = dose: 100.0 mg/kg/injection, schedule: Q01DX001 (ip), vehicle: other
[8] = dose: 200.0 mg/kg/injection, schedule: Q01DX001 (ip), vehicle: other
[9] = dose: 400.0 mg/kg/injection, schedule: Q01DX001 (ip), vehicle: other

Measured: T/C

CCOC(=O)c1c(O)[nH]c(=O)c(Br)c1C
inactive: [1] 109 % of control | [2] 89 % of control | [3] 120 % of control | [4] 89 % of control | [5] 117 % of control | [6] 90 % of control

C=C(COc1ccc(Cl)cc1)COc1ccc(Cl)cc1
inactive: dose: 12.5 mg/kg/injection, schedule: Q04DX002 (ip), vehicle: other 115 % of control and 117 % of control | dose: 50.0 mg/kg/injection, schedule: Q04DX003 (ip), vehicle: other 98 % of control and 107 % of control | [7] 95 % of control and 99 % of control | dose: 100.0 mg/kg/injection, schedule: Q04DX003 (ip), vehicle: other 96 % of control and 113 % of control | [8] 96 % of control and 98 % of control | dose: 200.0 mg/kg/injection, schedule: Q04DX003 (ip), vehicle: other 93 % of control and 106 % of control | [9] 91 % of control | dose: 400.0 mg/kg/injection, schedule: Q04DX003 (ip), vehicle: other 95 % of control and 113 % of control

C/C=C/CS(=O)(=O)Cc1ccccc1
inactive: dose: 100.0 mg/kg/injection, schedule: Q01DX001 (ip), vehicle: saline with Tween-80 103 % of control | dose: 200.0 mg/kg/injection, schedule: Q01DX001 (ip), vehicle: saline with Tween-80 95 % of control | dose: 400.0 mg/kg/injection, schedule: Q01DX001 (ip), vehicle: saline with Tween-80 103 % of control

CC(=O)c1cccc2c1cc(Cl)c1ccccc12
inactive: dose: 55.0 mg/kg/injection, schedule: Q01DX Z (ip), vehicle: methylcellulose (MC) 100 % of control | dose: 83.0 mg/kg/injection, schedule: Q01DX Z (ip), vehicle: methylcellulose (MC) 93 % of control | dose: 125.0 mg/kg/injection, schedule: Q01DX Z (ip), vehicle: methylcellulose (MC) 93 % of control

[Cu+2].[O-]c1ccc(Br)c2cccnc12.[O-]c1ccc(Br)c2cccnc12
inactive: dose: 25.0 mg/kg/injection, schedule: Q01DX001 (ip), vehicle: carboxymethylcellulose (CMC) 103 % of control | dose: 50.0 mg/kg/injection, schedule: Q01DX001 (ip), vehicle: carboxymethylcellulose (CMC) 105 % of control

O=C(O)c1cc(Br)cc(I)c1Br
inactive: dose: 100.0 mg/kg/injection, schedule: Q04DX002 (ip), vehicle: Klucel (hydroxypropylcellulose) (HPC) 105 % of control | dose: 200.0 mg/kg/injection, schedule: Q04DX002 (ip), vehicle: Klucel (hydroxypropylcellulose) (HPC) 117 % of control | dose: 400.0 mg/kg/injection, schedule: Q04DX002 (ip), vehicle: Klucel (hydroxypropylcellulose) (HPC) 105 % of control

O=c1cc(CO)oc(C(Nc2ccccc2)c2ccccc2)c1O (stereo not given)
inactive: [1] 91 % of control | [3] 97 % of control | [5] 95 % of control

CC(C)CC(N)C(=O)NCCCCCCNCCCCCCNC(=O)C(N)CC(C)C (stereo not given)
inactive: dose: 50.0 mg/kg/injection, schedule: Q01DX001 (ip), vehicle: saline 103 % of control | [1] 105 % of control | [3] 102 % of control

CCCCCCCCCCCCCCCCCCCCCCCCCC(=O)OCCCCCCCCCCCCCC
inactive: dose: 100.0 mg/kg/injection, schedule: Q01DX009 (ip), vehicle: saline 107 % of control | [2] 109 % of control | dose: 200.0 mg/kg/injection, schedule: Q01DX009 (ip), vehicle: saline 96 % of control | [4] 97 % of control | dose: 400.0 mg/kg/injection, schedule: Q01DX009 (ip), vehicle: saline 94 % of control | [6] 98 % of control

CC1=CC(C)(N=[N+]=[N-])CC(C)(C)C1 (stereo not given)
inactive: dose: 37.5 mg/kg/injection, schedule: Q04DX003 (ip), vehicle: saline 107 % of control | dose: 75.0 mg/kg/injection, schedule: Q01DX001 (ip), vehicle: saline 98 % of control | dose: 75.0 mg/kg/injection, schedule: Q04DX003 (ip), vehicle: saline 100 % of control | dose: 150.0 mg/kg/injection, schedule: Q01DX001 (ip), vehicle: saline 92 % of control | dose: 150.0 mg/kg/injection, schedule: Q04DX003 (ip), vehicle: saline 103 % of control

ClCCCCCCCCCCc1ccccc1
inactive: dose: 100.0 mg/kg/injection, schedule: Q01DX009 (ip), vehicle: saline sonified 91 % of control | dose: 100.0 mg/kg/injection, schedule: Q04DX003 (ip), vehicle: saline sonified 96 % of control | dose: 200.0 mg/kg/injection, schedule: Q01DX009 (ip), vehicle: saline sonified 93 % of control | dose: 200.0 mg/kg/injection, schedule: Q04DX003 (ip), vehicle: saline sonified 102 % of control | dose: 400.0 mg/kg/injection, schedule: Q01DX009 (ip), vehicle: saline sonified 89 % of control | dose: 400.0 mg/kg/injection, schedule: Q04DX003 (ip), vehicle: saline sonified 98 % of control

O=C(Nc1ccc(C(=O)c2ccccc2)cc1)c1ccc(C(=O)Nc2ccc(C(=O)c3ccccc3)cc2)cc1
inactive: [7] 93 % of control | [8] 86 % of control | [9] 89 % of control

COC(=O)/C=C/N(Cc1ccccc1)Cc1ccccc1
inactive: dose: 100.0 mg/kg/injection, schedule: Q01DX009 (ip), vehicle: saline with Tween-80 103 % of control | dose: 200.0 mg/kg/injection, schedule: Q01DX009 (ip), vehicle: saline with Tween-80 95 % of control | dose: 400.0 mg/kg/injection, schedule: Q01DX009 (ip), vehicle: saline with Tween-80 91 % of control

CC1(O)C=CCC1 (stereo not given)
inactive: dose: 75.0 mg/kg/injection, schedule: Q01DX001 (ip), vehicle: carboxymethylcellulose (CMC) 104 % of control | dose: 150.0 mg/kg/injection, schedule: Q01DX001 (ip), vehicle: carboxymethylcellulose (CMC) 102 % of control

CCSCC1OC(n2cnc3c(N)nc(F)nc32)C(O)C1O (stereo not given)
inactive: dose: 25.0 mg/kg/injection, schedule: Q01DX001 (ip), vehicle: Klucel (hydroxypropylcellulose) (HPC) 98 % of control | dose: 25.0 mg/kg/injection, schedule: Q01DX009 (ip), vehicle: Klucel (hydroxypropylcellulose) (HPC) 98 % of control | dose: 25.0 mg/kg/injection, schedule: Q04DX003 (ip), vehicle: Klucel (hydroxypropylcellulose) (HPC) 97 % of control | dose: 50.0 mg/kg/injection, schedule: Q01DX001 (ip), vehicle: Klucel (hydroxypropylcellulose) (HPC) 104 % of control | dose: 50.0 mg/kg/injection, schedule: Q01DX009 (ip), vehicle: Klucel (hydroxypropylcellulose) (HPC) 96 % of control | dose: 50.0 mg/kg/injection, schedule: Q04DX003 (ip), vehicle: Klucel (hydroxypropylcellulose) (HPC) 103 % of control | dose: 100.0 mg/kg/injection, schedule: Q01DX001 (ip), vehicle: Klucel (hydroxypropylcellulose) (HPC) 97 % of control and 102 % of control | dose: 100.0 mg/kg/injection, schedule: Q04DX003 (ip), vehicle: Klucel (hydroxypropylcellulose) (HPC) 92 % of control | dose: 200.0 mg/kg/injection, schedule: Q01DX001 (ip), vehicle: Klucel (hydroxypropylcellulose) (HPC) 86 % of control

N=C(N)c1cccc(NC(=O)c2ccc(C(=O)Nc3cccc(C(=N)N)c3)cc2)c1
inactive: dose: 8.0 mg/kg/injection, schedule: Q01DX Z (ip), vehicle: carboxymethylcellulose (CMC) 95 % of control | dose: 15.0 mg/kg/injection, schedule: Q01DX Z (ip), vehicle: saline 95 % of control | dose: 16.0 mg/kg/injection, schedule: Q01DX Z (ip), vehicle: carboxymethylcellulose (CMC) 96 % of control | dose: 30.0 mg/kg/injection, schedule: Q01DX Z (ip), vehicle: saline 120 % of control | dose: 31.0 mg/kg/injection, schedule: Q01DX Z (ip), vehicle: carboxymethylcellulose (CMC) 106 % of control | dose: 60.0 mg/kg/injection, schedule: Q01DX Z (ip), vehicle: saline 104 % of control | dose: 62.0 mg/kg/injection, schedule: Q01DX Z (ip), vehicle: carboxymethylcellulose (CMC) 113 % of control

Cc1nc(C[N+](C)(C)C)c2cnccn12
inactive: [2] 102 % of control

CN(C)/N=C\c1cccnc1
inactive: [2] 112 % of control | [4] 86 % of control
